Reference: ChEMBL document CHEMBL5385865, “Discovery and optimization of 2-(trifluoromethyl)benzimidazole derivatives as novel ferroptosis inducers in vitro and in vivo” (Eur J Med Chem, 2023)
Active and inactive are the calls of the source. The calls are words filed in the database; no cut-off is given here.

Tests used:
HT-1080 [1] = test: Induction of ferroptosis in human HT-1080 cells assessed as cell death at 5 uM incubated for 24 hrs in presence of beta-mercaptoethanol by MTT assay; type: functional, cell-based
HT-1080 [2] = test: Induction of ferroptosis in human HT-1080 cells assessed as cell death at 10 uM incubated for 24 hrs in presence of Nec-1 by MTT assay; type: functional, cell-based
[3] = Toxicity in BALB/c nude mouse xenografted with human HepG2 cells assessed as effect on serum CK level at 15 to 30 mg/kg, ip administered every other day for 21 days; type: organism-based; conditions: in vivo, 504 h, dose 15-30 mg/kg, time 21 day
786-0 [4] = test: Lethality in human 786-0 cells assessed as inhibition of cell viability incubated for 24 hrs by MTT assay; type: functional, cell-based; conditions: 786-0, 24 h
[5] = Metabolic stability in rat liver microsomes assessed as intrinsic clearance measured per mg protein at 1 uM in presence of NADPH by LC-MS analysis; type: ADME, Microsome; conditions: read-out: CLH
[6] = Toxicity in BALB/c nude mouse xenografted with human HepG2 cells assessed as effect on serum ALT level at 15 to 30 mg/kg, ip administered every other day for 21 days; type: organism-based; conditions: in vivo, 504 h, dose 15-30 mg/kg, time 21 day
HepG2 [7] = test: Lethality in human HepG2 cells assessed as decrease in cell viability at 10 uM incubated for 48 hrs by MTT assay; type: functional, cell-based
[8] = molecular target: T1, Phospholipid hydroperoxide glutathione peroxidase GPX4 (Homo sapiens) (UniProt P36969); test: Inhibition of GPX4 in human HT-1080 cells at 10 to 40 uM incubated for 12 hrs; type: cell-based; conditions: dose 10-40 µM
T1 sequence (whole entry): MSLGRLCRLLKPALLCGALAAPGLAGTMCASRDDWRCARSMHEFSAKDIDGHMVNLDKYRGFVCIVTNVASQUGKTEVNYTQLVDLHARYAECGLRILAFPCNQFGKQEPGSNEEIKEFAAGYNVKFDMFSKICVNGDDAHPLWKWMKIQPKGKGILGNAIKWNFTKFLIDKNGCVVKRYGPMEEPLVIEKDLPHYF

HT-1080 [9] = test: Induction of ferroptosis in human HT-1080 cells assessed as cell death at 5 uM incubated for 24 hrs in presence of DFO by morphology based microscopy; type: functional
786-0 [10] = test: Lethality in human 786-0 cells assessed as decrease in cell viability at 10 uM incubated for 48 hrs by MTT assay; type: functional, cell-based
A-375 [11] = test: Lethality in human A-375 cells assessed as decrease in cell viability at 10 uM incubated for 48 hrs by MTT assay; type: functional, cell-based
HT-1080 [12] = test: Induction of ferroptosis in human HT-1080 cells assessed as cell death at 5 uM incubated for 6 hrs in presence of ferric citrate by fluorescent microscopy; type: functional, cell-based
HT-1080 [13] = test: Induction of ferroptosis in human HT-1080 cells assessed as decrease in GSH level incubated for 12 hrs by DTNB method; type: functional, cell-based; conditions: dose 0.5-5 µM
HepG2 [14] = test: Antitumor activity against human HepG2 cells xenografted in BALB/c nude mouse assessed as tumor weight reduction administered intraperitoneally every other day for 21 days; type: functional; conditions: dose 15-30 mg/kg, route ip, time 21.0 day
A-375 [15] = test: Lethality in human A-375 cells assessed as decrease in cell viability at 10 uM incubated for 48 hrs in presence of DFO by MTT assay; type: functional, cell-based
HepG2 [16] = test: Lethality in human HepG2 cells assessed as decrease in cell viability at 10 uM incubated for 48 hrs in presence of DFO by MTT assay; type: functional, cell-based
HT-1080 [17] = test: Induction of ferroptosis in human HT-1080 cells assessed as cell death at 5 uM incubated for 6 hrs in presence of ferric ammonium citrate by fluorescent microscopy; type: functional, cell-based
HT-1080 [18] = test: Induction of ferroptosis in human HT-1080 cells assessed as increase in cytosolic ROS accumulation incubated for 10 hrs by H2DCFDA probe based flow cytometry; type: functional, cell-based; conditions: dose 0.5-5 µM
HT-1080 [19] = test: Induction of ferroptosis in human HT-1080 cells assessed as increase in lipid ROS accumulation at 0.5 to 5 uM incubated for 10 hrs by flow cytometry; type: functional, cell-based; conditions: dose 0.5-5 µM
HT-1080 [20] = test: Induction of ferroptosis in human HT-1080 cells assessed as increase in CHAC1 mRNA level incubated for 6 hrs by qPCR analysis; type: functional, cell-based; conditions: dose 0.5-5 µM
[21] = molecular target: T2, Cystine/glutamate transporter (Homo sapiens) (UniProt Q9UPY5); test: Inhibition of Xc- in human HT-1080 cells assessed as decrease in glutamate release incubated for 3 hrs by Amplex red assay; type: cell-based; conditions: dose 0.5-5 µM
T2 sequence (whole entry): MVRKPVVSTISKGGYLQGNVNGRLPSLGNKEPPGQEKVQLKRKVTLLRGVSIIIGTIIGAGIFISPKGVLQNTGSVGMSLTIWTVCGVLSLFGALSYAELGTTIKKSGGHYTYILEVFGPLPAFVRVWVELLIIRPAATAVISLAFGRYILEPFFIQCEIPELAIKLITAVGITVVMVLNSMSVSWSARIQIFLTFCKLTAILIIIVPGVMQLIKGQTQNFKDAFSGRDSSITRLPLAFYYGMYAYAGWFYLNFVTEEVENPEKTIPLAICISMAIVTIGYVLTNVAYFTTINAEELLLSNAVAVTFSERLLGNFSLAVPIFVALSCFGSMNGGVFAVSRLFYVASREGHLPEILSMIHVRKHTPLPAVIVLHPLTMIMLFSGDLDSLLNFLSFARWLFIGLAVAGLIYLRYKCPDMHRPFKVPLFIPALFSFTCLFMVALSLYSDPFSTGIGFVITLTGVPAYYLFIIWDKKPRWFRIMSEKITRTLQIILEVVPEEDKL

HT-1080 [22] = test: Induction of ferroptosis in human HT-1080 cells assessed as cell death at 10 uM incubated for 24 hrs in presence of DFO by MTT assay; type: functional, cell-based
DU-145 = test: Lethality in human DU-145 cells assessed as decrease in cell viability at 10 uM incubated for 48 hrs in presence of DFO by MTT assay; type: functional, cell-based
HeLa = test: Lethality in human HeLa cells assessed as decrease in cell viability at 10 uM incubated for 48 hrs by MTT assay; type: functional, cell-based
HT-1080 [23] = test: Induction of ferroptosis in human HT-1080 cells assessed as cell death at 5 uM incubated for 24 hrs in presence of Fer-1 by morphology based microscopy; type: functional
786-0 [24] = test: Lethality in human 786-0 cells assessed as decrease in cell viability at 10 uM incubated for 48 hrs in presence of DFO by MTT assay; type: functional, cell-based
HT-1080 [25] = test: Induction of ferroptosis in human HT-1080 cells assessed as increase in lipid ROS accumulation at 5 uM incubated for 10 hrs in presence of Fer-1 by BODIPY-C11 probe based confocal laser scanning microscopy; type: functional, cell-based
[26] = Toxicity in BALB/c nude mouse xenografted with human HepG2 cells assessed as histological change in lung at 15 to 30 mg/kg, ip administered every other day for 21 days by H and E staining based analysis; type: organism-based; conditions: in vivo, 504 h, dose 15-30 mg/kg, time 21 day
[27] = Toxicity in BALB/c nude mouse xenografted with human HepG2 cells assessed as histological change in kidney at 15 to 30 mg/kg, ip administered every other day for 21 days by H and E staining based analysis; type: organism-based; conditions: in vivo, 504 h, dose 15-30 mg/kg, time 21 day
[28] = Toxicity in human HEK293T cells upto 20 uM incubated for 48 hrs by MTT assay; type: cell-based; conditions: hek-293t

For `CN(C)S(=O)(=O)c1ccc(N2CCC(Cn3c(C(F)(F)F)nc4ccccc43)CC2)cc1`, the Activity (HT-1080 [1]) was “inactive”, the Activity (HT-1080 [2]) was “Active” and the Activity [3] was “Non-Toxic”. For the same compound, the IC50 (786-0 [4]) was 700 nM, the microsomal CLint at 1 µM [5] was 133 µL/min/mg and the Activity [6] was “Non-Toxic”. For the same compound, the Activity (HepG2 [7]) was “Active”, the inhibition [8] was “inactive” and the Activity (HT-1080 [9]) was “inactive”. For the same compound, the Activity (786-0 [10]) was “Active”, the Activity (A-375 [11]) was “Active” and the Activity (HT-1080 [12]) was “Active”. For the same compound, the Activity (HT-1080 [13]) was “Dose-Dependent Effect”, the Activity (HepG2 [14]) was “Dose-Dependent Effect” and the Activity (A-375 [15]) was “inactive”. For the same compound, the Activity (HepG2 [16]) was “inactive”, the Activity (HT-1080 [17]) was “Active” and the Activity (HT-1080 [18]) was “Dose-Dependent Effect”. The Activity (HT-1080 [19]) was “Active”, the Activity (HT-1080 [20]) was “Dose-Dependent Effect” and the inhibition [21] was “Dose-Dependent Effect”. For the same compound, the Activity (HT-1080 [22]) was “inactive”, the Activity (DU-145) was “inactive” and the Activity (HeLa) was “Active”. For the same compound, the Activity (HT-1080 [23]) was “inactive”, the Activity (786-0 [24]) was “inactive” and the Activity (HT-1080 [25]) was “inactive”. For the same compound, the Activity [26] was “Non-Toxic”, the Activity [27] was “Non-Toxic” and the Activity [28] was “Toxic”.
